The target in one assay is Folate receptor alpha (Homo sapiens, UniProt P15328). The experiment in a line: Displacement of [3H]-folic acid from FRalpha (unknown origin) expressed in human KB cells after 1 hr. Type of assay: cell-based. For orientation: Displacement assays read how much labelled ligand stays bound in the presence of the test substance.
Another assay deals with Folate receptor beta (Homo sapiens, UniProt P14207). The assay can be described thus: Displacement of [3H]-folic acid from FRbeta (unknown origin) expressed in mouse RAW264.7 cells after 1 hr. Type of assay: cell-based.
Chain of Folate receptor beta (P14207 whole entry): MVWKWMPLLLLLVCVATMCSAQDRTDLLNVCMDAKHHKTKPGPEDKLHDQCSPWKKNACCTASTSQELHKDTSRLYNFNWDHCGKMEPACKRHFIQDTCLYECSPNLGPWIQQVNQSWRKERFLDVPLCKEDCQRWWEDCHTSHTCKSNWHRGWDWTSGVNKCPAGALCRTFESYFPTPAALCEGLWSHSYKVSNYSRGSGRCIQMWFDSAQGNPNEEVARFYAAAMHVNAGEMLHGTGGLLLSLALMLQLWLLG
Assay [1] has as its system Mus musculus. The experiment in a line: Antiinflammatory activity against mouse model of thioglycolate induced peritonitis assessed as effect on lymphocytes in peritoneal fluid at 1000 nmol/kg, ip dosed twice everyday measured after 3 days by staining based flow cytometric analysis relative to control. To be noted: time 3.0 day. Type of assay: functional, organism-based. A general note: Flow cytometry measures light scatter and fluorescence of single cells or particles in a stream.

Assay [2] has as its system Mus musculus. The assay can be described thus: Antiinflammatory activity against mouse model of thioglycolate induced peritonitis assessed as effect on granulocytes in peritoneal fluid at 1000 nmol/kg, ip dosed twice everyday measured after 3 days by staining based flow cytometric analysis relative to control. Type of assay: functional, organism-based. To be noted: time 3.0 day.

For assay [3], the system named is Mus musculus. The experiment in a line: Antiinflammatory activity against mouse model of thioglycolate induced peritonitis assessed as decrease in FR+ macrophages in peritoneal fluid at 1000 nmol/kg, ip dosed twice everyday measured after 3 days by Alexafluor-488 goat anti-rabbitIgG staining based flow cytometric analysis relative to control. Type of assay: functional, organism-based. To be noted: time 3.0 day.

In assay [4] the test system is Mus musculus. The assay can be described thus: Antiinflammatory activity against mouse model of thioglycolate induced peritonitis assessed as decrease in total macrophage population in peritoneal fluid at 1000 nmol/kg, ip dosed twice everyday measured after 3 days by staining based flow cytometric analysis relative to control. Type of assay: functional, organism-based. To be noted: time 3.0 day.

A further assay deals with RAW264.7. The assay can be described thus: Cytotoxicity against mouse RAW264.7 cells assessed as reduction in cell viability treated for 1 hr followed by 72 hrs incubation in drug free media by [3H]-thymidine incorporation assay. Type of assay: functional, cell-based.
In the next assay the test system is KB. The experiment in a line: Cytotoxicity against human KB cells assessed as reduction in cell viability treated for 1 hr followed by 72 hrs incubation in drug free media by [3H]-thymidine incorporation assay. Type of assay: cell-based.

Here are results for two molecules from ChEMBL document CHEMBL4819124, “Folate-targeted verrucarin A reduces the number of activated macrophages in a mouse model of acute peritonitis” (Bioorg Med Chem Lett, 2021).

A word on the pIC50: it is the negative decadic logarithm of the IC50, by convention in mol/L.

Molecules are shown by their SMILES. pIC50: −log10 of the molar value. Active and inactive are the calls of the source. No cut-off for these calls is given here. *1 amine or outer side, *2 acyl side, *3 side chain or, on linkers, in order; H or OH if unused. Where a SMILES comes first, the peptide text is derived from it. The star is where a group is joined. Pteroyl = Nc1nc2ncc(CNc3ccc(C(=O)*)cc3)nc2c(=O)[nH]1; γGlu = O=C(O)[C@H](CCC(=O)[*:2])N[*:1]

Chain of Folate receptor alpha (P15328 whole entry): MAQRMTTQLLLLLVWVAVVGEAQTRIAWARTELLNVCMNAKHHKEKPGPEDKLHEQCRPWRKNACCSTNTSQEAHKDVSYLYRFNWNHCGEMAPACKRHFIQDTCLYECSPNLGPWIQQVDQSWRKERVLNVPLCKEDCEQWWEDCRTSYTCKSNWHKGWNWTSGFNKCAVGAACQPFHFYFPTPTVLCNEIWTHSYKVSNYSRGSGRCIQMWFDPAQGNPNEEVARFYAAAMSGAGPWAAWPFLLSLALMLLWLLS

`N=C(N)NCCC[C@H](NC(=O)[C@H](CC(=O)O)NC(=O)CC[C@H](NC(=O)c1ccc(NCc2cnc3nc(N)[nH]c(=O)c3n2)cc1)C(=O)O)C(=O)N[C@@H](CC(=O)O)C(=O)N[C@@H](CC(=O)O)C(=O)N[C@@H](CS)C(=O)O` ({Pteroyl-γGlu}-DRDDC-OH): the pIC50 was 8.85 on Folate receptor alpha and 9.25 at Folate receptor beta.

On to `CC1=C[C@H]2O[C@@H]3C[C@H]4OC(=O)/C=C\C=C\C(=O)OCC[C@@H](C)[C@H](OC(=O)OCCSSC[C@H](NC(=O)[C@H](CC(=O)O)NC(=O)[C@H](CC(=O)O)NC(=O)[C@H](CCCNC(=N)N)NC(=O)[C@H](CC(=O)O)NC(=O)CC[C@H](NC(=O)c5ccc(NCc6cnc7nc(N)[nH]c(=O)c7n6)cc5)C(=O)O)C(=O)O)C(=O)OC[C@@]2(CC1)[C@]4(C)[C@]31CO1`, for which the outcome with Mus musculus [1] and in the assay with Mus musculus [2] was inactive. In addition, the outcome in the assay with Mus musculus [3] and in the assay with Mus musculus [4] was Active. The results for the pIC50 with RAW264.7 and in the assay with KB were 8.07 and 6.28, respectively.
